A short description of data set [1]: Lethal dose 50 (LD50) in the mouse after a single oral administration. It is filed as in vivo. The note with it: in vivo, single administration, 14th day mortality. As for the experimental part: (§1) Method for studying the lethal dose 50(LD50) in the mouse after a single administration.
(§2) Groups of 10 Swiss albine, female, adult (20-22 g of body weight) mice, fasting from the evening preceding the test, are treated orally with various doses of the test drug suspended in hydroxyethylcellulose (0.50% weight/volume).
(§3) Thereafter, the animals are fed again.
(§4) LD50 is calculated by the method of Litchfield J. T. and Wilcoxon F. (J. Pharmacol. 96, 99-113, 1949) by utilizing the mortality data as obtained on the 14th day after the test drug administration.

Data set [2] has as its system mouse. The data set is described as above. The class given is in vivo. The note with it: in comparison with acetylsalicylic acid. The method, then: as §1, §2, §3, §4
The test system of another data set is bronchial secretion. Kind of data set: Bronchosecretagogue activity: quantitative evaluation of the bronchial secretion of rabbit (Scuri et al.). The class given is in vivo, rabbit (adult male brown). To be noted: oral. The source says:
Method of quantitative evaluation of the bronchial secretion of rabbit according to Scuri R. et al. Boll. Chim. Farm. […] Adult male brown rabbits (2.8-3.5 kg of body weight) are employed, to which a T shaped tracheal cannula, by surgical operation, as described in the mentioned bibliographic reference, is applied. To the cannula, a container for periodical collection of the bronchial secretion is applied. The study of mucoproduction, started at the fourth day after the operation, is divided into two periods, each of 4 hours, for collecting and measuring the mucus secreted. The action of the drug under examination, is tested by administering the same orally at the begining of the second mucus collection period and evaluating the percent increase of mucus production (as measured gravimetrically in the second period in comparison with the first period).

For data set [3], the system named is carrageenin induced oedema. Put plainly: Anti-oedemigenous activity: carrageenin induced oedema (Winter et al.). To be noted: for ED40: 3 h, read-out: Anti-oedemigenous activity ED40. It is filed as in vivo, rat (female albine Wistar). As for the experimental part: Method of carrageenin induced oedema according to Winter C. A. et al--Proc. Soc. […] Female albine Wistar rats (120-160 g of body weight) are utilized. The drug under test is administered orally one hour before injection into the right hind paw of a carrageenin water suspension (1% volume injected ml 0.05).
A general note: The carrageenan paw model is a standard test of acute inflammation.

Another data set has as its system pleural exudate. Kind of data set: Anti-exudative activity: quantitative evaluation of the pleural exudate of a rat (carrageenin pleuritis). The note with it: for ED50: 6 h, read-out: Anti-exudative activity ED50. It is filed as in vivo, rat (female albine Wistar). As for the experimental part: Method of the quantitative evaluation of the pleural exudate of a rat according to Vinegar E. et al.-Proc. Soc. […] Female albine Wistar rats (average weight 160 g), fasting from the evening preceding the test, are used. The experimental pleuritis is induced by injecting into the pleural cavity, under ethereal anesthesia, 0.15 ml of a 1% carrageenin solution (Prodotti Gianni-Milano). The test drug is administered orally, half an hour before the carrageenin. Six hours after the carrageenin injection, the animals are sacrificed and volumetric measurement of the pleural exudate, as withdrawn by a syringe, is performed.

Data set [4] deals with phenylquinone abdominal contractions. Put plainly: Analgesic activity: phenylquinone method (abdominal contractions). The class given is in vivo, mouse (female Swiss albine). To be noted: for ED50: read-out: Analgesic activity ED50; for analgesic activity (in words): oral, comparison with acetylsalicylic acid. The method, then:
Female Swiss albine mice (20-25 g), fasting for 2 hours, are utilized.
The test drug is administered orally 30 minutes before the endoperitoneal injection of phenylquinone (0.08 mg/mouse).
The characteristic abdominal contractions are counted individually during a 20 minutes period.

The subject of another data set is yeast induced pyrexia. Kind of data set: Antipyretic activity: yeast induced pyrexia in the rat. It is filed as in vivo, rat (female Wistar albine). To be noted: for ED50: oral simultaneously with yeast, Temperature Index. As for the experimental part: Method of yeast induced pyrexia in the rat. Female Wistar albine rats, weighing 100-140 g, are utilized. The animals having a basal rectal temperature from 36° to 37° C. are selected. The testing substances are administered orally simultaneously with the pyretic agent (dry brewers' yeast suspended in water at the 20% concentration, administered volume 15 ml/kg, subcutaneously) to groups of 5 animals per dose. After 4, 5, 6, 7 and 24 hours from the treatment, the rectal temperature of the animals is recorded by an Ellab RM6 probe, connected to an Ellab-mod. TE-3 thermometer. The activity of the drugs is evaluated by utilizing a Temperature Index, which is given by the algebraic sum of the differences in the rectal temperature between the measure values at different times and the basal value;

Data set [5] can be described thus: Gastric tolerability: gastric ulcerogenesys by repeated drug administrations. The class given is in vivo, rat (female Wistar albine). To be noted: rat, in vivo, po. The method, then: (§5) Method of gastric ulcerogenesys by repeated drug administrations.
(§6) Fed female Wistar albine rats (140-160 g of initial body weight) are used.
(§7) The drug under test is administered orally, daily, for five days. At the end of the test the stomach of the rats is withdrawn, it is dissected along the lesser curvature, washed and observed in order to disclose the presence of either gastric lesions or manifest submucosa hemorrhages.
(§8) The "ulcerogenic dose 50" (UD50) is defined as the daily dose able to induce lesions or hemorrhages in 50% of the animals treated.

Data set [6] has as its system stomach. The description is as above. The class given is in vivo, rat (female Wistar albine). The note with it: rat. As for the experimental part:
as §5, §6, §7, §8

Data set [7] deals with mouse. To be noted: literature datum, Hart E R J. Pharm. Exp. Ther. 89 205, 1947; 20160 min; cited from earlier work.
In data set [8] the test system is stomach. The note with it: Arrigono-Martelli, Meth. Find. Exp. Clin. Pharmacol. 1, 157, 1979; 7200 min; cited from earlier work.

Here are results for 2 molecules from patent US4631293A, “(-) Campholenic acid ester of salicylic acid and pharmaceutically acceptable salts thereof having mucosecretolytic, anti-inflammatory, analgesic, and antipyretic activity” (Camillo Corvi S.p.A., priority 1984, dated 1986).

“Also recorded” adds a separate entry of the source. Like-named read-outs stand apart in the source and are kept apart here.

With `CC1=CCC(CC(=O)Oc2ccccc2C(=O)O)C1(C)C` (single isomer, unassigned) [CO/1473, 2-(2,2,3-trimethyl-3-cyclopentene-1-acetoxy)benzoic acid], in data set [1], the LD50 at 336 h worked out at 913 mg/kg. In the data set on mouse [2], the “acute toxicity (in words)” value is given as “low acute toxicity”. Moreover, the 50% effective dose (ED50) (usually the dose that gives a 50% effect, or the effect in half of the subjects) in the data set with bronchial secretion (Oryctolagus cuniculus, 4 h, percent increase of mucus production) is 60 mg/kg; in the data set on pleural exudate (rat, oral half an hour before carrageenin, exudate volume after six hours), 320 mg/kg; in [4] (mouse, oral 30 minutes before phenylquinone), 52 mg/kg; in the data set with yeast induced pyrexia it was 400 mg/kg. Also, the “bronchosecretagogue activity (in words)” value in the data set on bronchial secretion is on record as “has bronchosecretagogue activity in the rabbit”. Besides, the ED40 in [3] (rat, oral one hour before carrageenin, paw volume after three hours) was determined as 400 mg/kg. For the same molecule, the “anti-oedemigenous activity in comparison with acetylsalicylic acid (in words)” value in [3] (rat, oral, first test of Table 3) is “superior in the first test”. The “anti-exudative activity in comparison with acetylsalicylic acid (in words)” value in the data set with pleural exudate (rat, oral, second test of Table 3) is given as “slightly inferior in the second”. In addition, the “analgesic activity (in words)” value in data set [4] (mouse) is reported as “slightly more active than acetylsalicylic acid”. Moreover, the “antipyretic activity (in words)” value in the data set with yeast induced pyrexia (oral, comparison with acetylsalicylic acid) is “interesting antipyretic activity in the rat, though lower than the one of acetylsalicylic acid”. Moreover, the NOAEL (commonly the highest tested level that showed no adverse finding) at 120 h in [5] worked out at 800 mg/kg. Moreover, the “gastro-damaging effect (in words)” value in the data set on stomach [6] (up to the maximum dose of 800 mg/kg os/die for 5 days, listed as compound of the invention, 800 mg/kg) is “does not show any gastro-damaging effect; also recorded: very good gastric tolerability”.
On to `CC(=O)Oc1ccccc1C(=O)O` [acetylsalicylic acid, reference compound], for which the “Bronchosecretagogue activity ED50” value with bronchial secretion (percent increase of mucus production) was “inactive”. For the same molecule, the ED40 in [3] (Rattus norvegicus, po) is 400 mg/kg. Also, the ED50 with pleural exudate (Rattus norvegicus, po) amounted to 215 mg/kg; in data set [4] (Mus musculus, po) it was 70 mg/kg; with yeast induced pyrexia, 157 mg/kg. For the same molecule, the “analgesic activity (in words)” value in [4] (mouse) is “good analgesic activity in the mouse”. For the same molecule, the “gastro-damaging dose, times lower than that of CO/1473” value with stomach [6] (oral, acetylsalicylic acid dose versus CO/1473 dose) is recorded as 16 times lower. In addition, the LD50 with mouse [7] is recorded as 1100 mg/kg os. Besides, the “UD50 (ulcerogenic dose 50)” value in the data set with stomach [8] is reported as 48 mg/kg os.
